# Source: patent US20140378525A1, “MATERIALS AND METHODS FOR TREATING PTEN MUTATED OR DEFICIENT CANCER” (priority 2011, published 2014)
# Experiments:
# Assay in all cases: Drug sensitivity of breast cancer cell line to lapatinib
# Assay type in all cases: cell-based, human
# [1] = tested on: JIMT1; conditions: JIMT1, ERBB2 amplified
# Excerpt: (§1) To complement this functional viability profiling, we also characterised the breast tumor panel using transcript microarrays, array-based comparative genomic hybridisation (aCGH), drug sensitivity for a small number of targeted agents, as well as gene mutation data.
# [2] = tested on: MDAMB453; conditions: MDAMB453, ERBB2 amplified
# Excerpt: as §1
# [3] = tested on: VP229; conditions: VP229, ERBB2 amplified
# Excerpt: as §1
# [4] = tested on: HCC202; conditions: HCC202, ERBB2 amplified
# Excerpt: as §1
# [5] = tested on: BT474; conditions: BT474, ERBB2 amplified
# Excerpt: as §1
# [6] = tested on: SKBR3; conditions: SKBR3, ERBB2 amplified
# Excerpt: as §1
smiles,measurement,setting,value
CS(=O)(=O)CCNCc1ccc(-c2ccc3ncnc(Nc4ccc(OCc5cccc(F)c5)c(Cl)c4)c3c2)o1 [lapatinib],sensitivity to lapatinib treatment,[1],resistant
same,sensitivity to lapatinib treatment,[2],resistant
same,sensitivity to lapatinib treatment,[3],resistant
same,sensitivity to lapatinib treatment,[4],sensitive
same,sensitivity to lapatinib treatment,[5],sensitive
same,sensitivity to lapatinib treatment,[6],sensitive
